The values below come from US12203125B2, “Device for determining antimicrobial susceptibility of a microorganism” (Q-linea AB, priority 2015, dated 2025).

Converted amounts (≈) assume the structure as drawn.

Holding throughout (format): cell-based
Test [1] relates to clinical isolate QM006. Kind of test: Rapid AST: MIC calculated from microphotographs (biomass imaging, 0 to 4 hours) of isolate recovered from blood culture flask below 0.5 McFarland. Here is the method: (§1) Dilutions of two different bacterial clinical isolates were seeded into an aerobic blood culture flask (Bactec, Becton Dickinson) at an estimated concentration of either 1 or 10 CFU/ml blood. Before seeding, the BCF had been filled with human blood from healthy donors. Aliquots from the dilution series were plated on agar and grown over night for viable count. Target concentration was 10 or 100 CFU seeded in 0.5 ml per BCF, corresponding to approximately 1 or 10 CFU/ml blood. The seeded BCF were allowed to incubate for 8 hours at 35° C. and a 5 ml aliquot were taken for subsequent AST. Another aliquot from the same BCF was used for determination of viable count after 8 hours' growth in the BCF.
(§2) A 5 ml aliquot of the cultured clinical isolate from the blood culture flask was filtered using a 100 μm filter to remove resin particles from the culture medium. The sample was thereafter mixed with a 10 ml of lysis buffer capable of selectively lysing any non-microbial cells present in the sample, and incubated for a sufficient amount of time for the non-microbial cells to be lysed. The resulting lysate was filtered through a 0.2 μm filter. Liquid components of the lysate (including components of the lysed non-microbial cells) passed through the filter, whereas microbial cells present in the sample were retained on the filter.
(§3) The retained microbial cells were re-suspended in liquid Mueller Hinton broth medium to form a microbial culture preparation, by back-flushing the filter with culture medium (i.e. flowing the culture medium in the opposite direction to filtration). 100 μl aliquots of the microbial culture preparation were then dispensed into wells of a microtiter plate.
(§4) The wells of the microtiter plate contained between 5 and 13 different concentrations of an antibiotic and different antibiotics. A negative control (i.e. comprising a blood sample with no seeded bacteria) and a positive control sample (i.e. an aliquot of the sample from a seeded BCF but into a well with no antimicrobial agent) were also set up at this stage.
(§5) Focus was performed on each inoculated well and each well was read at intervals of 1 hour. A total of 5 images were taken at time points from 0 to 4 hours after the initiation of the AST assay. The degree of microbial growth in each growth condition was monitored by imaging, by measuring the amount of microbial biomass in each well.
(§6) Microphotographs from the different wells were analysed to generate a numerical value of the biomass in the well and this was used as a marker of growth. From the growth a minimal inhibitory concentration was determined and compared to MIC obtained using a reference method, broth micro-dilution. […] A sample was determined to Pass (P) if within +/−1 two-fold dilution from the reference MIC.

The subject of test [2] is clinical isolate QM171. The description is as above. The protocol:
as §1, §2, §3, §4, §5, §6

The test system of test [3] is clinical isolate QM006. Kind of test: Reference MIC, broth micro-dilution (ISO 20776, turbidity after 16-20 hours). To be noted: isolate QM006, broth micro-dilution from 0.5 McFarland, 16-20 hours growth. A general note: In broth dilution the organism is exposed to a series of concentrations in liquid medium.
Test [4] concerns clinical isolate QM171. The description is as above. Particulars: isolate QM171, broth micro-dilution from 0.5 McFarland, 16-20 hours growth. The protocol:
as §6

The test system of test [5] is gentamicin resistant E. coli strain. Kind of test: AST by imaging at different starting titers. To be noted: starting concentration 2×10^6 CFU/ml (Lane B) vs 3×10^5 CFU/ml (Lane A), four hours growth. From the text: E. coli grown in blood+BCF media were recovered via a clean-up procedure to remove blood components and only retain viable bacteria in MH-media. Adjustment of the recovered bacteria were made to ensure different titers are used at start of the AST. AST assays were set up to a starting concentration of 3×10^5 CFU/ml (Lane A) and 2×10^6 CFU/ml (Lane B) of a gentamicin resistant E. coli strain. Aliquots of the recovered bacteria were dispensed into a microtiter plate with freeze dried antibiotics at varying concentrations and allowed to grow for four hours before imaging. Shown are microphotographs from a series of different concentration of antibiotics in two-fold dilutions ranging from 64 mg/l to 0.0625 mg/l of gentamicin.

The mark [6] stands for this setting: isolate QM006, experiment repeat no. 1, imaging after 4 h.
Where [7] appears, read: isolate QM006, experiment repeat no. 2, imaging after 4 h.
[8] abbreviates: isolate QM006, experiment repeat no. 3, imaging after 4 h.
[9] abbreviates: isolate QM006, experiment repeat no. 4, imaging after 4 h.
[10] abbreviates: isolate QM006, experiment repeat no. 5, imaging after 4 h.
[11] abbreviates: isolate QM006, experiment repeat no. 6, imaging after 4 h.
Where [12] appears, read: isolate QM006, experiment repeat no. 7, imaging after 4 h.
The mark [13] stands for this setting: isolate QM006, experiment repeat no. 8, imaging after 4 h.
The mark [14] stands for this setting: isolate QM006, experiment repeat no. 9, imaging after 4 h.
Where [15] appears, read: isolate QM171, experiment repeat no. 1, imaging after 4 h.
Where [16] appears, read: isolate QM171, experiment repeat no. 2, imaging after 4 h.
Where [17] appears, read: isolate QM171, experiment repeat no. 3, imaging after 4 h.
[18] abbreviates: isolate QM171, experiment repeat no. 4, imaging after 4 h.
Setting [19] is: isolate QM171, experiment repeat no. 5, imaging after 4 h.
The mark [20] stands for this setting: isolate QM171, experiment repeat no. 6, imaging after 4 h.
The mark [21] stands for this setting: isolate QM171, experiment repeat no. 7, imaging after 4 h.

Regarding `CO/N=C(\C(=O)N[C@@H]1C(=O)N2C(C(=O)O)=C(COC(C)=O)CS[C@H]12)c1csc(N)n1` [Cefotaxime], the MIC calculated from microphotographs is more than 8 µg/mL in the test with clinical isolate QM006 [1] (setting [6]); more than 16 µg/mL with clinical isolate QM006 [1] (setting [7]); more than 16 µg/mL with clinical isolate QM006 [1] (setting [8]); more than 16 µg/mL in the test with clinical isolate QM006 [1] (setting [9]); more than 16 µg/mL in the test on clinical isolate QM006 [1] (setting [10]); more than 16 µg/mL with clinical isolate QM006 [1] (setting [11]). Moreover, the MIC calculated from microphotographs in the test on clinical isolate QM006 [1] (setting [12]) was more than 16 µg/mL; with clinical isolate QM006 [1] (setting [13]), more than 16 µg/mL; with clinical isolate QM006 [1] (setting [14]) it was more than 16 µg/mL; in the test with clinical isolate QM171 [2] (setting [15]) it was 8 µg/mL (≈ 17.6 µM); in the test with clinical isolate QM171 [2] (setting [16]), more than 16 µg/mL; in the test on clinical isolate QM171 [2] (setting [17]), more than 16 µg/mL. In addition, the MIC calculated from microphotographs in the test with clinical isolate QM171 [2] (setting [18]) was more than 16 µg/mL; with clinical isolate QM171 [2] (setting [19]), more than 16 µg/mL; in the test on clinical isolate QM171 [2] (setting [20]), 16 µg/mL (≈ 35.1 µM); with clinical isolate QM171 [2] (setting [21]) it was 16 µg/mL (≈ 35.1 µM). The Reference MIC in the test on clinical isolate QM006 [3] and with clinical isolate QM171 [4] was more than 8 µg/mL throughout.
Turning to `CC(C)(O/N=C(\C(=O)N[C@@H]1C(=O)N2C(C(=O)[O-])=C(C[n+]3ccccc3)CS[C@H]12)c1csc(N)n1)C(=O)O` [Ceftazidime], the MIC calculated from microphotographs was 8 µg/mL (≈ 14.6 µM) in the test with clinical isolate QM006 [1] (setting [6]); 16 µg/mL (≈ 29.3 µM) in the test with clinical isolate QM006 [1] (setting [7]); 8 µg/mL (≈ 14.6 µM) in the test with clinical isolate QM006 [1] (setting [8]); 8 µg/mL (≈ 14.6 µM) in the test on clinical isolate QM006 [1] (setting [9]); 8 µg/mL (≈ 14.6 µM) with clinical isolate QM006 [1] (setting [10]); 16 µg/mL (≈ 29.3 µM) in the test with clinical isolate QM006 [1] (setting [11]). Also, the MIC calculated from microphotographs with clinical isolate QM006 [1] (setting [12]) was 8 µg/mL (≈ 14.6 µM); with clinical isolate QM006 [1] (setting [13]), 16 µg/mL (≈ 29.3 µM); with clinical isolate QM006 [1] (setting [14]), 8 µg/mL (≈ 14.6 µM); with clinical isolate QM171 [2] (setting [15]), 2 µg/mL (≈ 3.66 µM); in the test on clinical isolate QM171 [2] (setting [16]) it was 2 µg/mL (≈ 3.66 µM); with clinical isolate QM171 [2] (setting [17]), 2 µg/mL (≈ 3.66 µM). The MIC calculated from microphotographs in the test on clinical isolate QM171 [2] (setting [18]) is 2 µg/mL (≈ 3.66 µM); in the test on clinical isolate QM171 [2] (setting [19]), 2 µg/mL (≈ 3.66 µM); in the test with clinical isolate QM171 [2] (setting [20]) it was 2 µg/mL (≈ 3.66 µM); in the test on clinical isolate QM171 [2] (setting [21]) it was 1 µg/mL (≈ 1.83 µM). Moreover, the Reference MIC in the test on clinical isolate QM006 [3] is 16 µg/mL; with clinical isolate QM171 [4], 2 µg/mL.
For the molecule `C[C@@H](O)[C@H]1C(=O)N2C(C(=O)O)=C(S[C@@H]3CN[C@H](C(=O)N(C)C)C3)[C@H](C)[C@H]12` [Meropenem], the MIC calculated from microphotographs is not above 0.5 µg/mL in the test with clinical isolate QM006 [1] (setting [6]); not above 0.5 µg/mL in the test on clinical isolate QM006 [1] (setting [7]); not above 0.5 µg/mL in the test with clinical isolate QM006 [1] (setting [8]); 1 µg/mL (≈ 2.61 µM) with clinical isolate QM006 [1] (setting [9]); not above 0.5 µg/mL with clinical isolate QM006 [1] (setting [10]); not above 0.5 µg/mL in the test on clinical isolate QM006 [1] (setting [11]). The MIC calculated from microphotographs in the test on clinical isolate QM006 [1] (setting [12]), with clinical isolate QM006 [1] (setting [13]), in the test on clinical isolate QM006 [1] (setting [14]), in the test with clinical isolate QM171 [2] (setting [15]), with clinical isolate QM171 [2] (setting [16]) and with clinical isolate QM171 [2] (setting [17]) was not above 0.5 µg/mL throughout. The MIC calculated from microphotographs in the test on clinical isolate QM171 [2] (setting [18]), with clinical isolate QM171 [2] (setting [19]), in the test with clinical isolate QM171 [2] (setting [20]) and in the test on clinical isolate QM171 [2] (setting [21]) was not above 0.5 µg/mL each time. Also, the Reference MIC with clinical isolate QM006 [3] was not above 0.5 µg/mL; in the test on clinical isolate QM171 [4], 1 µg/mL.
As for Gentamicin, the MIC calculated from microphotographs in the test on clinical isolate QM006 [1] (setting [6]), with clinical isolate QM006 [1] (setting [7]), in the test on clinical isolate QM006 [1] (setting [8]), in the test with clinical isolate QM006 [1] (setting [9]), with clinical isolate QM006 [1] (setting [10]) and with clinical isolate QM006 [1] (setting [11]) was 16 µg/mL in each case. The MIC calculated from microphotographs in the test with clinical isolate QM006 [1] (setting [12]) is 16 µg/mL; in the test on clinical isolate QM006 [1] (setting [13]), 16 µg/mL; in the test on clinical isolate QM006 [1] (setting [14]), 16 µg/mL; in the test with clinical isolate QM171 [2] (setting [15]), 0.5 µg/mL; with clinical isolate QM171 [2] (setting [16]), 0.5 µg/mL; with clinical isolate QM171 [2] (setting [17]), 0.5 µg/mL. Also, the MIC calculated from microphotographs is 0.5 µg/mL in the test with clinical isolate QM171 [2] (setting [18]), 0.5 µg/mL in the test on clinical isolate QM171 [2] (setting [19]), 0.5 µg/mL in the test on clinical isolate QM171 [2] (setting [20]) and 0.25 µg/mL in the test on clinical isolate QM171 [2] (setting [21]). Further, the Reference MIC was more than 16 µg/mL in the test on clinical isolate QM006 [3] and not above 0.5 µg/mL in the test on clinical isolate QM171 [4]. The “MIC value at higher bacterial titer compared with lower titer” value in test [5] is “higher MIC value”.
